Results from patent publication US20260262643A1, “HERBICIDAL BENZOXAZINES” (FMC CORPORATION, priority 2022, published 2026).

Key:
galium = experiment: Test C postemergence; assay type: in vivo, Galium aparine; details: 10 days, 0 to 100 scale (0 no effect, 100 complete control)
Method in brief: (§1)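 Seeds sown in loam soil–sand blend received a directed preemergence soil spray of test chemical in non-phytotoxic solvent with surfactant; postemergence plants (2–10 cm, one- to two-leaf stage) were sprayed with the same formulation. Greenhouse-held 10 days, then visually rated for injury versus untreated controls, 0 (no effect) to 100 (complete control).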

kochia [1] = experiment: Test C postemergence; assay type: in vivo, Bassia scoparia; details: 10 days, 0 to 100 scale (0 no effect, 100 complete control)
Method in brief: as §1

horseweed = experiment: Test C postemergence; assay type: in vivo, Erigeron canadensis; details: 10 days, 0 to 100 scale (0 no effect, 100 complete control)
Method in brief: as §1

corn [2] = experiment: Test C postemergence; assay type: in vivo, Zea mays; details: 10 days, 0 to 100 scale (0 no effect, 100 complete control)
Method in brief: as §1

soybean [3] = experiment: Test C preemergence; assay type: in vivo, Glycine max
Method in brief: as §1

pigweed, palmer [4] = experiment: Test C postemergence; assay type: in vivo, Amaranthus palmeri; details: 10 days, 0 to 100 scale (0 no effect, 100 complete control)
Method in brief: as §1

blackgrass [5] = experiment: Test C preemergence; assay type: in vivo, Alopecurus myosuroides
Method in brief: as §1

sedge, umbrella = experiment: Test D flooded paddy test; assay type: in vivo, Cyperus difformis; details: 250 g ai/ha, applied to paddy water, visual rating after 13 to 14 days, scale 0 to 100 (0 no effect, 100 complete control)
Method in brief: (§2)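 Plants at the 2-leaf stage were grown in pots flooded to 3 cm, and compound was applied directly into the paddy water, with depth kept throughout. After 13–14 days in a greenhouse, injury was rated visually against untreated controls on a 0–100 scale (100 = complete control); a dash means not tested.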

rice = experiment: Test D flooded paddy test; assay type: in vivo, Oryza sativa; details: 250 g ai/ha, applied to paddy water, visual rating after 13 to 14 days, scale 0 to 100 (0 no effect, 100 complete control)
Method in brief: as §2

ducksalad = experiment: Test D flooded paddy test; assay type: in vivo, Heteranthera limosa; details: 250 g ai/ha, applied to paddy water, visual rating after 13 to 14 days, scale 0 to 100 (0 no effect, 100 complete control)
Method in brief: as §2

blackgrass [6] = experiment: Test C postemergence; assay type: in vivo, Alopecurus myosuroides; details: 10 days, 0 to 100 scale (0 no effect, 100 complete control)
Method in brief: as §1

foxtail, giant [7] = experiment: Test C postemergence; assay type: in vivo, Setaria faberi; details: 10 days, 0 to 100 scale (0 no effect, 100 complete control)
Method in brief: as §1

ryegrass, Italian [8] = experiment: Test C postemergence; assay type: in vivo, Lolium multiflorum; details: 10 days, 0 to 100 scale (0 no effect, 100 complete control)
Method in brief: as §1

wheat [9] = experiment: Test C postemergence; assay type: in vivo, Triticum aestivum; details: 10 days, 0 to 100 scale (0 no effect, 100 complete control)
Method in brief: as §1

ryegrass, Italian [10] = experiment: Test C preemergence; assay type: in vivo, Lolium multiflorum
Method in brief: as §1

barnyardgrass [11] = experiment: Test C preemergence; assay type: in vivo, Echinochloa crusgalli
Method in brief: as §1

barnyardgrass [12] = experiment: Test D flooded paddy test; assay type: in vivo, Echinochloa crus-galli; details: 250 g ai/ha, applied to paddy water, visual rating after 13 to 14 days, scale 0 to 100 (0 no effect, 100 complete control)
Method in brief: as §2

pigweed, palmer [13] = experiment: Test C preemergence; assay type: in vivo, Amaranthus palmeri
Method in brief: as §1

foxtail, giant [14] = experiment: Test C preemergence; assay type: in vivo, Setaria faberi
Method in brief: as §1

ragweed [15] = experiment: Test C postemergence; assay type: in vivo, Ambrosia artemisiifolia; details: 10 days, 0 to 100 scale (0 no effect, 100 complete control)
Method in brief: as §1

corn [16] = experiment: Test C preemergence; assay type: in vivo, Zea mays
Method in brief: as §1

oat, wild [17] = experiment: Test C postemergence; assay type: in vivo, Avena fatua; details: 10 days, 0 to 100 scale (0 no effect, 100 complete control)
Method in brief: as §1

soybean [18] = experiment: Test C postemergence; assay type: in vivo, Glycine max; details: 10 days, 0 to 100 scale (0 no effect, 100 complete control)
Method in brief: as §1

wheat [19] = experiment: Test C preemergence; assay type: in vivo, Triticum aestivum
Method in brief: as §1

ragweed [20] = experiment: Test C preemergence; assay type: in vivo, Ambrosia artemisiifolia
Method in brief: as §1

oat, wild [21] = experiment: Test C preemergence; assay type: in vivo, Avena fatua
Method in brief: as §1

barnyardgrass [22] = experiment: Test C postemergence; assay type: in vivo, Echinochloa crusgalli; details: 10 days, 0 to 100 scale (0 no effect, 100 complete control)
Method in brief: as §1

kochia [23] = experiment: Test C preemergence; assay type: in vivo, Bassia scoparia
Method in brief: as §1

[24] = 500 g ai/ha, preemergence, 0 to 100 scale (0 no effect, 100 complete control)
[25] = Preemergence, 125 g ai/ha, 0 to 100 scale, 0 no effect, 100 complete control

Cc1ccc(-n2cncn2)cc1C(=O)N1CC(C(F)(F)F)Oc2c(Cl)cccc21 (stereo not shown) [Compound 346]
Plant response rating, Galium (galium; 500 g ai/ha, postemergence): 100
Plant response rating, Galium (galium; Postemergence, 125 g ai/ha): 100
Plant response rating, Kochia (kochia [1]; 500 g ai/ha, postemergence): 80
Plant response rating, Kochia (kochia [1]; Postemergence, 125 g ai/ha): 70
Plant response rating, Horseweed (horseweed; 500 g ai/ha, postemergence): 0
Plant response rating, Horseweed (horseweed; Postemergence, 125 g ai/ha): 0
Plant response rating, Corn (corn [2]; 500 g ai/ha, postemergence): 90
Plant response rating, Corn (corn [2]; Postemergence, 125 g ai/ha): 10
Soybean plant response rating (soybean [3]; [24]): 100
Plant response rating, Soybean (soybean [3]; [25]): 30
Plant response rating, Pigweed, Palmer (pigweed, palmer [4]; 500 g ai/ha, postemergence): 70
Plant response rating, Pigweed, Palmer (pigweed, palmer [4]; Postemergence, 125 g ai/ha): 40
Blackgrass plant response rating (blackgrass [5]; [24]): 90
Plant response rating, Blackgrass (blackgrass [5]; [25]): 80
Plant response rating, Sedge, Umbrella (Flood) (sedge, umbrella): 85
Plant response rating, Rice (Flood) (rice): 0
Plant response rating, Ducksalad (Flood) (ducksalad): 65
Plant response rating, Blackgrass (blackgrass [6]; 500 g ai/ha, postemergence): 90
Plant response rating, Blackgrass (blackgrass [6]; Postemergence, 125 g ai/ha): 80
Plant response rating, Foxtail, Giant (foxtail, giant [7]; 500 g ai/ha, postemergence): 90
Plant response rating, Foxtail, Giant (foxtail, giant [7]; Postemergence, 125 g ai/ha): 90
Plant response rating, Ryegrass, Italian (ryegrass, Italian [8]; 500 g ai/ha, postemergence): 80
Plant response rating, Ryegrass, Italian (ryegrass, Italian [8]; Postemergence, 125 g ai/ha): 70
Plant response rating, Wheat (wheat [9]; 500 g ai/ha, postemergence): 70
Plant response rating, Wheat (wheat [9]; Postemergence, 125 g ai/ha): 20
Ryegrass, Italian plant response rating (ryegrass, Italian [10]; [24]): 90
Plant response rating, Ryegrass, Italian (ryegrass, Italian [10]; [25]): 80
Barnyardgrass plant response rating (barnyardgrass [11]; [24]): 100
Plant response rating, Barnyardgrass (barnyardgrass [11]; [25]): 70
Plant response rating, Barnyardgrass (Flood) (barnyardgrass [12]): 0
Pigweed, Palmer plant response rating (pigweed, palmer [13]; [24]): 100
Plant response rating, Pigweed, Palmer (pigweed, palmer [13]; [25]): 100
Foxtail, Giant plant response rating (foxtail, giant [14]; [24]): 100
Plant response rating, Foxtail, Giant (foxtail, giant [14]; [25]): 100
Plant response rating, Ragweed (ragweed [15]; 500 g ai/ha, postemergence): 40
Plant response rating, Ragweed (ragweed [15]; Postemergence, 125 g ai/ha): 30
Corn plant response rating (corn [16]; [24]): 90
Plant response rating, Corn (corn [16]; [25]): 0
Plant response rating, Oat, Wild (oat, wild [17]; 500 g ai/ha, postemergence): 60
Plant response rating, Oat, Wild (oat, wild [17]; Postemergence, 125 g ai/ha): 0
Plant response rating, Soybean (soybean [18]; 500 g ai/ha, postemergence): 100
Plant response rating, Soybean (soybean [18]; Postemergence, 125 g ai/ha): 90
Wheat plant response rating (wheat [19]; [24]): 80
Plant response rating, Wheat (wheat [19]; [25]): 0
Ragweed plant response rating (ragweed [20]; [24]): 10
Plant response rating, Ragweed (ragweed [20]; [25]): 0
Oat, Wild plant response rating (oat, wild [21]; [24]): 40
Plant response rating, Oat, Wild (oat, wild [21]; [25]): 0
Plant response rating, Barnyardgrass (barnyardgrass [22]; 500 g ai/ha, postemergence): 70
Plant response rating, Barnyardgrass (barnyardgrass [22]; Postemergence, 125 g ai/ha): 40
Kochia plant response rating (kochia [23]; [24]): 80
Plant response rating, Kochia (kochia [23]; [25]): 10
